Results on eight molecules are retold here after EPA's CvTdb concentration-time database.

Data set [1] deals with Rat. Put plainly: concentration in plasma after dosing. The conditions noted are these: 0.25 h; dosed: Wyeth-14643; 5.0 mg/kg; oral; Male; Sprague-Dawley.
The subject of data set [2] is Rat. Put plainly: concentration in plasma after dosing. As to conditions: dosed: Wyeth-14643, 1.0 mg/kg, oral, Male, Sprague-Dawley.
Data set [3] concerns Rat. Put plainly: concentration in plasma after dosing. As to conditions: 2 h; dosed: Wyeth-14643; 1.0 mg/kg; oral; Male; Sprague-Dawley.
In data set [4] the test system is Rat. Put plainly: concentration in liver after dosing. As to conditions: 40 min; dosed: Bis 2-Chloroethoxy Methane; 20 mg/kg; iv; Male; F344.
Data set [5] deals with Rat. Briefly: concentration in plasma after dosing. The conditions noted are these: 20 min; dosed: Bis 2-Chloroethoxy Methane; 20 mg/kg; iv; Female; F344.
Data set [6] deals with Rat. Briefly: concentration in plasma after dosing. The conditions noted are these: 3 h; dosed: Bis 2-Chloroethoxy Methane; 20 mg/kg; iv; Male; F344.
Data set [7] concerns Rat. Put plainly: concentration in heart after dosing. As to conditions: 1 h; dosed: Bis 2-Chloroethoxy Methane; 20 mg/kg; iv; Female; F344.
Data set [8] deals with Rat. Briefly: concentration in heart after dosing. As to conditions: 6 h; dosed: Bis 2-Chloroethoxy Methane; 20 mg/kg; iv; Female; F344.
The test system of data set [9] is Rat. Put plainly: concentration in liver after dosing. The conditions noted are these: 2 h; dosed: Bis 2-Chloroethoxy Methane; 20 mg/kg; iv; Female; F344.
For data set [10], the system named is Rat. Put plainly: concentration in plasma after dosing. The conditions noted are these: dosed: Fluorotelomer alcohol 8+2, 12 mg/kg, iv, Male, F344.
Data set [11] deals with Rat. Put plainly: concentration in kidney after dosing. The conditions noted are these: 1 h; dosed: Fluorotelomer alcohol 8+2; 80 mg/kg; oral; Female; Harlan Sprague Dawley.
Data set [12] deals with Rat. Put plainly: concentration in brain after dosing. The conditions noted are these: 0.5 h; dosed: Fluorotelomer alcohol 8+2; 80 mg/kg; oral; Female; Harlan Sprague Dawley.
The subject of data set [13] is Rat. Briefly: concentration in liver after dosing. As to conditions: 1 h; dosed: Fluorotelomer alcohol 8+2; 80 mg/kg; oral; Female; Harlan Sprague Dawley.
Data set [14] deals with Rat. Put plainly: concentration in plasma after dosing. As to conditions: dosed: Fluorotelomer alcohol 8+2, 12 mg/kg, iv, Male, F344. The source holds these as a separate data set.
In data set [15] the test system is Rat. Briefly: concentration in liver after dosing. The conditions noted are these: 12 h; dosed: Fluorotelomer alcohol 8+2; 80 mg/kg; oral; Female; Harlan Sprague Dawley.
Data set [16] relates to Rat. Briefly: concentration in liver after dosing. As to conditions: 6 h; dosed: Fluorotelomer alcohol 8+2; 80 mg/kg; oral; Female; Harlan Sprague Dawley.
The test system of data set [17] is Rat. Briefly: concentration in plasma after dosing. As to conditions: 3 h; dosed: Di-n-butyl phthalate; 20 mg/kg; iv; Male; Sprague-Dawley.
The test system of data set [18] is Rat. Briefly: concentration in plasma after dosing. The conditions noted are these: 40 min; dosed: Di-n-butyl phthalate; 50 mg/kg; oral; Male; Sprague-Dawley.
For data set [19], the system named is Rat. Put plainly: concentration in kidney after dosing. As to conditions: 3360 h; dosed: Perfluorodecanoic acid; 10 mg/kg; oral; Female; Harlan Sprague Dawley.
The test system of data set [20] is Rat. Briefly: concentration in liver after dosing. The conditions noted are these: 1848 h; dosed: Perfluorodecanoic acid; 10 mg/kg; oral; Male; Harlan Sprague Dawley.
The subject of data set [21] is Rat. Briefly: concentration in brain after dosing. The conditions noted are these: 864 h; dosed: Perfluorodecanoic acid; 10 mg/kg; oral; Male; Harlan Sprague Dawley.
Data set [22] concerns Rat. Put plainly: concentration in plasma after dosing. As to conditions: dosed: Perfluorodecanoic acid, 2 mg/kg, oral, Male, Harlan Sprague Dawley.
Data set [23] deals with Rat. Put plainly: concentration in kidney after dosing. The conditions noted are these: 24 h; dosed: Perfluorodecanoic acid; 10 mg/kg; oral; Female; Harlan Sprague Dawley.
Data set [24] relates to Rat. Put plainly: concentration in liver after dosing. The conditions noted are these: 1848 h; dosed: Perfluorodecanoic acid; 10 mg/kg; oral; Male; Harlan Sprague Dawley. This is another data set of the same source.
For data set [25], the system named is Rat. Briefly: concentration in plasma after dosing. The conditions noted are these: 1.5 h; dosed: Primidone; 30 mg/kg; oral; Female; F344.
The subject of data set [26] is Rat. Put plainly: concentration in heart after dosing. As to conditions: 10 min; dosed: Thiodiglycolic Acid; 20 mg/kg; iv; Female; Harlan Sprague Dawley.
Data set [27] deals with Rat. Briefly: concentration in plasma after dosing. The conditions noted are these: 1 h; dosed: Thiodiglycolic Acid; 20 mg/kg; iv; Male; Harlan Sprague Dawley.
Data set [28] deals with Rat. Briefly: concentration in liver after dosing. As to conditions: 5.333 h; dosed: Thiodiglycolic Acid; 20 mg/kg; iv; Male; Harlan Sprague Dawley.
In data set [29] the test system is Rat. Put plainly: concentration in plasma after dosing. As to conditions: 4 h; dosed: Thiodiglycolic Acid; 20 mg/kg; iv; Male; Harlan Sprague Dawley.
Data set [30] relates to Rat. Put plainly: concentration in thymus after dosing. As to conditions: 1 h; dosed: Thiodiglycolic Acid; 20 mg/kg; iv; Female; Harlan Sprague Dawley.
Data set [31] has as its system Rat. Briefly: concentration in thymus after dosing. As to conditions: 2 h; dosed: Thiodiglycolic Acid; 20 mg/kg; iv; Female; Harlan Sprague Dawley.
In data set [32] the test system is Rat. Briefly: concentration in thymus after dosing. The conditions noted are these: 4 h; dosed: Thiodiglycolic Acid; 20 mg/kg; iv; Female; Harlan Sprague Dawley.
The subject of data set [33] is Rat. Put plainly: concentration in liver after dosing. As to conditions: 5.333 h; dosed: Thiodiglycolic Acid; 20 mg/kg; iv; Female; Harlan Sprague Dawley.
For data set [34], the system named is Rat. Briefly: concentration in liver after dosing. As to conditions: 10 h; dosed: Thiodiglycolic Acid; 20 mg/kg; iv; Male; F344.
Data set [35] has as its system Rat. Briefly: concentration in plasma after dosing. The conditions noted are these: dosed: dichloroacetic acid, 100 mg/kg, oral, Male, F344.
For data set [36], the system named is Rat. Briefly: concentration in plasma after dosing. As to conditions: 2 min; dosed: dichloroacetic acid; 10 mg/kg; iv; Male; F344.
The test system of data set [37] is Rat. Briefly: concentration in plasma after dosing. The conditions noted are these: dosed: dichloroacetic acid, 40 mg/kg, oral, Female, Harlan Sprague Dawley.

As to `Cc1cccc(Nc2cc(Cl)nc(SCC(=O)O)n2)c1C`, the concentration in plasma with Rat [1] amounted to 10600 ng/mL; in the data set with Rat [2] (0.25 h) it was 397 ng/mL; in the data set with Rat [2] (4 h), 308 ng/mL; in the data set on Rat [3], 266 ng/mL.

With `ClCCOCOCCCl` [Bis 2-Chloroethoxy Methane], the concentration in liver amounted to 3320 ng/g with Rat [4] and 70.7 ng/g with Rat [9]. Also, the concentration in plasma is 3810 ng/mL in the data set on Rat [5] and 90.6 ng/mL with Rat [6]. Besides, the figures for the concentration in heart with Rat [7] and in the data set on Rat [8] were 1380 ng/g and 33.8 ng/g, respectively.

In the case of `OCCC(F)(F)C(F)(F)C(F)(F)C(F)(F)C(F)(F)C(F)(F)C(F)(F)C(F)(F)F` [Fluorotelomer alcohol 8+2], the concentration in plasma was 1710 ng/mL in the data set on Rat [10] (0.25 h), 3.59 ng/mL in the data set with Rat [10] (24 h), 1220 ng/mL in the data set on Rat [14] (0.5 h) and 19.6 ng/mL in the data set on Rat [14] (9 h). In the data set on Rat [11], the concentration in kidney is 1950 ng/g. In addition, the concentration in brain in the data set with Rat [12] was determined as 4390 ng/g. Besides, the concentration in liver stood at 5950 ng/g with Rat [13], 434 ng/g in the data set on Rat [15] and 2430 ng/g in the data set on Rat [16].

Regarding `CCCCOC(=O)c1ccccc1C(=O)O` [Mono-n-butyl phthalate], the results for the concentration in plasma in the data set on Rat [17] and in the data set on Rat [18] were 1640 ng/mL and 16800 ng/mL, respectively.

Consider `O=C(O)C(F)(F)C(F)(F)C(F)(F)C(F)(F)C(F)(F)C(F)(F)C(F)(F)C(F)(F)C(F)(F)F` [Perfluorodecanoic acid], for which the concentration in kidney was found to be 2910 ng/g with Rat [19] and 57900 ng/g in the data set on Rat [23]. In addition, the concentration in liver in the data set with Rat [20] is 27600 ng/g; in the data set on Rat [24] it was 32000 ng/g. For the same molecule, the concentration in brain in the data set on Rat [21] is 917 ng/g. Besides, the results for the concentration in plasma in the data set with Rat [22] (0.5 h), in the data set with Rat [22] (24 h) and in the data set with Rat [22] (1848 h) were 2500 ng/mL, 7510 ng/mL and 1090 ng/mL, respectively.

With `CCC1(c2ccccc2)C(=O)NC(=O)NC1=O` [Phenobarbital], in the data set on Rat [25], the concentration in plasma came out at 380 ng/mL.

In the data set on Rat [26], `O=C(O)CSCC(=O)O` [Thiodiglycolic Acid] had a concentration in heart of 9540 ng/g. Moreover, the values for the concentration in plasma in the data set on Rat [27] and in the data set on Rat [29] were 1580 ng/mL and 615 ng/mL, respectively. In addition, the results for the concentration in liver in the data set on Rat [28], in the data set with Rat [33] and in the data set with Rat [34] were 22900 ng/g, 47900 ng/g and 7350 ng/g, respectively. The figures for the concentration in thymus in the data set with Rat [30], in the data set on Rat [31] and in the data set on Rat [32] were 3010 ng/g, 2180 ng/g and 657 ng/g, respectively.

On to `O=C(O)C(Cl)Cl` [dichloroacetic acid], for which the concentration in plasma with Rat [35] (20 min) amounted to 15900 ng/mL; with Rat [35] (8 h), 25000 ng/mL; in the data set on Rat [36], 22900 ng/mL; in the data set on Rat [37] (5 min), 5140 ng/mL; in the data set with Rat [37] (1.25 h) it was 4620 ng/mL.
